In publication PMC6084503, “Pyrrolo[3,2-c]pyridine derivatives with potential inhibitory effect against FMS kinase: in vitro biological studies” (Journal of Enzyme Inhibition and Medicinal Chemistry, 2018):

Columns and labels:
FMS kinase = target: T1, FMS kinase (Homo sapiens, UniProt P07333); test: Kinase HotSpot cell-free enzyme assay, FMS kinase; type: biochemical; settings: for IC50: 10-dose duplicate assay, mean ± SEM, starting with 81 µM, threefold serial dilution, read-out: IC50 against FMS kinase
T1 construct: purchased Reaction Biology Corp
Experimental: Reaction Biology Corp. Kinase HotSpot^SM service [http://www.reactionbiology.com] was utilised for screening of the target compounds as per the protocol reported in the literature.
Compounds 1a–r were tested in a 10-dose testing mode starting with 81 µM, threefold serial dilutions, against FMS kinase in a cell-free enzyme assay. […] This can be due to occupancy of a hydrophobic pocket with that additional benzoyl moiety and/or formation of additional hydrogen bond by the carbonyl oxygen.

T1 sequence (P07333 20-972): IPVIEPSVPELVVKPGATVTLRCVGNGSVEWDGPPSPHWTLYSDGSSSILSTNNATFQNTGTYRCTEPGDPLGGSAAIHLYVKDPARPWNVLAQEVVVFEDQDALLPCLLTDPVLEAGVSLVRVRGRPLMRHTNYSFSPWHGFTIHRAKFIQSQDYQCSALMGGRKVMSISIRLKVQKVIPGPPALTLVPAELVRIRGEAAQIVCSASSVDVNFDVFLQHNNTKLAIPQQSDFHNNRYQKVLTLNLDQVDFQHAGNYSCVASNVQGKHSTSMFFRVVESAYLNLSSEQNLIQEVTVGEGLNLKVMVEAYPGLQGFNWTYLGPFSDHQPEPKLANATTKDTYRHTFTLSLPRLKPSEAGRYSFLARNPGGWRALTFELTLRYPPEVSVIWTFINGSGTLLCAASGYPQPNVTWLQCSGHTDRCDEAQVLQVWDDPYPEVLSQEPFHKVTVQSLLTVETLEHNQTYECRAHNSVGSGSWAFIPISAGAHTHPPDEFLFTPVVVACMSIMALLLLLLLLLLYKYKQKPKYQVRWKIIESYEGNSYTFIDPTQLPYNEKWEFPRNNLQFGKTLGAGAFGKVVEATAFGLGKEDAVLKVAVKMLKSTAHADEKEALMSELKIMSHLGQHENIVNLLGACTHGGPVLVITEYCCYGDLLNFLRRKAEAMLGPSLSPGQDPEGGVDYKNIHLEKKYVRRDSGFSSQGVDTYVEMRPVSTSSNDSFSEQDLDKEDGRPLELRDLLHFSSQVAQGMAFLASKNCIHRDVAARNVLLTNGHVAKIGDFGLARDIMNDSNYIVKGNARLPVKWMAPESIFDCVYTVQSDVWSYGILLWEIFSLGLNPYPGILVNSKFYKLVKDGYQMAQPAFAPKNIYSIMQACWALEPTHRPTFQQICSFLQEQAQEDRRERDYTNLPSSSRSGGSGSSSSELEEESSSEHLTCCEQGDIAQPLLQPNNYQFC

Structure (SMILES)	IC50 (FMS kinase)	melting point	Potency against FMS kinase relative to KIST101029 (FMS kinase; ratio of IC50 values, more potent than lead compound KIST101029)
Nc1nccc2c1ccn2-c1ccc(NC(=O)Nc2ccc(Cl)c(C(F)(F)F)c2)cc1 [Compound 1l]	3200 ± 70 nM	> 280 °C	–
O=C(Nc1cccc(-n2ccc3c(NC(=O)c4ccccc4)nccc32)c1)c1cccc(C(F)(F)F)c1 [Compound 1i]	> 81000 nM	142 to 144 °C	–
O=C(Nc1ccc(-n2ccc3c(NC(=O)c4ccccc4)nccc32)cc1)c1ccc(Cl)c(Cl)c1 [Compound 1f]	> 81000 nM	–	–
Nc1nccc2c1ccn2-c1cccc(NC(=O)c2ccc(Cl)c(Cl)c2)c1 [Compound 1o]	40700 ± 2400 nM	> 280 °C	–
Nc1nccc2c1ccn2-c1ccc(NC(=O)c2ccc(N3CCOCC3)c(C(F)(F)F)c2)cc1 [Compound 1p]	100 ± 30 nM	253 to 256 °C (dec.)	–
O=C(Nc1cccc(-n2ccc3c(NC(=O)c4ccccc4)nccc32)c1)c1ccc(Cl)c(Cl)c1 [Compound 1g]	1270 ± 70 nM	–	–
O=C(Nc1cccc(-n2ccc3c(NC(=O)c4ccccc4)nccc32)c1)Nc1ccc(Cl)c(C(F)(F)F)c1 [Compound 1d]	2470 ± 30 nM	143 to 145 °C	–
O=C(Nc1ccc(-n2ccc3c(NC(=O)c4ccccc4)nccc32)cc1)c1cccc(C(F)(F)F)c1 [Compound 1h]	10800 ± 600 nM	–	–
O=C(Nc1ccc(-n2ccc3c(NC(=O)c4ccccc4)nccc32)cc1)c1ccc(N2CCOCC2)c(C(F)(F)F)c1 [Compound 1j]	33100 ± 450 nM	–	–
O=C(Nc1ccc(-n2ccc3c(NC(=O)c4ccccc4)nccc32)cc1)Nc1ccc(Cl)c(C(F)(F)F)c1 [Compound 1c]	390 ± 20 nM	–	–
Nc1nccc2c1ccn2-c1ccc(NC(=O)Nc2cc(C(F)(F)F)cc(C(F)(F)F)c2)cc1 [Compound 1m]	1450 ± 30 nM	–	–
O=C(Nc1ccc(-n2ccc3c(NC(=O)c4ccccc4)nccc32)cc1)Nc1cc(C(F)(F)F)cc(C(F)(F)F)c1 [Compound 1e]	60 ± 10 nM	> 280 °C	1.6 times
Nc1nccc2c1ccn2-c1ccc(NC(=O)c2ccc(Cl)c(Cl)c2)cc1 [Compound 1n]	> 81000 nM	–	–
